This passage reports IC50 and inhibition results from patent publication US20240182445A1 (ONO PHARMACEUTICAL CO., LTD., priority 2019, published 2024).

For one test, the target named is T1, human TREK-1 (Homo sapiens, UniProt O95069).
T1 construct: expressed in transfected cells
T1 sequence (O95069 1-426): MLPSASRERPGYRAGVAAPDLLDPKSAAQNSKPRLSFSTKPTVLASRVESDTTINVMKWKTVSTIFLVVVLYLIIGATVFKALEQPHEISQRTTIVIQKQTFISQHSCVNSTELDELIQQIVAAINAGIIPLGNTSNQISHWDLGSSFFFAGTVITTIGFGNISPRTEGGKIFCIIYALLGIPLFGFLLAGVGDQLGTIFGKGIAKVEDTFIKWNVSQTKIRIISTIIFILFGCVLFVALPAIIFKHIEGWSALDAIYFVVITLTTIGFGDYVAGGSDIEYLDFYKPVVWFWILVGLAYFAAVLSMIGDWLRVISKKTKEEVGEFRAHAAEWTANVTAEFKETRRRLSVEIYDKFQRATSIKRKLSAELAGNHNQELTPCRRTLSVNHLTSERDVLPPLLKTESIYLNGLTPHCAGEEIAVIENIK
The test can be described thus: TREK-1 Thallium (Tl+) flux assay, Method 1. It is filed as cell-based. The settings on record: TREK-1 Thallium (Tl+) flux assay, Method 1. Put shortly:
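Readout: Thallos fluorescence ratio, taken 25 s post-thallium relative to the pre-thallium baseline average, then converted to % inhibition. Cells were CHO-K1 stably expressing human TREK-1, dye-loaded and exposed to test compound (vehicle 0.3% DMSO) for 10 min prior to thallium stimulation.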
As for `CC(=O)N1CC2(CC(n3ncc(Cl)c3C(=O)Nc3ccc(OCc4ccccc4)cc3C)C2)C1` [Compound 433, 1-(2-acetyl-2-azaspiro[3.3]heptan-6-yl)-N-(4-(benzyloxy)-2-methylphenyl)-4-chloro-1H-pyrazole-5-carboxamide], the IC50 was determined as 6890 nM.

`Cc1cc(-c2cnn(-c3ccccc3F)c2)cnc1NC(=O)c1c(Cl)cnn1C1CCN(C(=O)OC(C)(C)C)CC1` [Compound 436, tert-butyl 4-(4-chloro-5-((5-(1-(2-fluorophenyl)-1H-pyrazol-4-yl)-3-methylpyridin-2-yl)carbamoyl)-1H-pyrazol-1-yl)piperidine-1-carboxylate] showed an IC50 of 9300 nM.

`COc1c(F)cc(-c2cnc(NC(=O)c3c(Cl)cnn3C3CCN(C(C)=O)CC3)c(C)c2)cc1F` [Compound 428, 1-(1-acetylpiperidin-4-yl)-4-chloro-N-(5-(3,5-difluoro-4-methoxyphenyl)-3-methylpyridin-2-yl)-1H-pyrazole-5-carboxamide] had an IC50 of 5310 nM.

Staying with this test, now noted: TREK-1 Thallium (Tl+) flux assay; no *^12 (Method 2) mark on these rows.
In turn, `Cc1cc(C#Cc2ccccc2)cnc1NC(=O)c1c(Cl)cnn1C1CC2(C1)CN(C(=O)C(C)C)C2` [Compound 212, 4-chloro-1-(2-isobutyryl-2-azaspiro[3.3]heptan-6-yl)-N-(3-methyl-5-(phenylethynyl)pyridin-2-yl)-1H-pyrazole-5-carboxamide] yielded an IC50 of 330 nM.

The compound `Cc1cc(C#Cc2ccc(F)cc2)cnc1NC(=O)c1c(Cl)cnn1[C@H]1C[C@H](NC(=O)C2CC2)C1` [Compound 198, 4-chloro-1-(trans-3-(cyclopropanecarboxamido)cyclobutyl)-N-(5-((4-fluorophenyl)ethynyl)-3-methylpyridin-2-yl)-1H-pyrazole-5-carboxamide] came in with an IC50 of 300 nM.

As to `CC(C)(C)C(=O)N1CCC(n2ncc(Cl)c2C(=O)Nc2ncc(C#Cc3cccs3)cc2F)CC1` [Compound 247, 4-chloro-N-(3-fluoro-5-(thiophen-2-ylethynyl)pyridin-2-yl)-1-(1-pivaloylpiperidin-4-yl)-1H-pyrazole-5-carboxamide], the IC50 is 390 nM.

Compound `Cc1cc(C#Cc2ccccc2)cnc1NC(=O)c1c(Cl)cnn1[C@H]1C[C@@H]2CN(C(=O)C(C)(C)C)C[C@@H]2C1` [Compound 352, 4-chloro-1-[(3aR,5s,6aS)-2-(2,2-dimethylpropanoyl)octahydrocyclopenta [c]pyrrol-5-yl]-N-[3-methyl-5-(phenylethynyl)pyridin-2-yl]-1H-pyrazole-5-carboxamide] gave an IC50 of 840 nM.

Consider `O=C(Nc1c(F)cc(C#Cc2ccccc2)cc1F)c1c(Cl)cnn1C1CCOCC1` [Compound 201, 4-chloro-N-(2,6-difluoro-4-(phenylethynyl)phenyl)-1-(tetrahydro-2H-pyran-4-yl)-1H-pyrazole-5-carboxamide], for which the half-maximal inhibitory concentration (IC50) was determined as 310 nM.

The compound “tert-butyl 4-(4-chloro-5-((3-fluoro-5-(phenylethynyl)pyridin-2-yl)carbamoyl)-1H-pyrazol-1-yl)-2-methylpiperidine-1-caboxylate [Compound 324]” showed an IC50 of 640 nM.

As for `O=C(Nc1ncc(C#Cc2ccccc2)cc1F)c1c(Cl)cnn1CC1CCCO1` (centres unmarked) [Compound 366, 4-chloro-N-(3-fluoro-5-(phenylethynyl)pyridin-2-yl)-1-((tetrahydrofuran-2-yl)methyl)-1H-pyrazole-5-carboxamide], the IC50 was 930 nM.

Consider `Cc1cc(C#Cc2ccccc2)cnc1NC(=O)c1c(Cl)cnn1CC1CCC(C)(C)O1` (centres unmarked) [Compound 371, 4-chloro-1-((5,5-dimethyltetrahydrofuran-2-yl)methyl)-N-(3-methyl-5-(phenylethynyl)pyridin-2-yl)-1H-pyrazole-5-carboxamide], for which the IC50 was 1000 nM.

For `Cc1cc(C#Cc2ccccc2)cnc1NC(=O)c1c(Cl)cnn1C1CC(C#N)C1` (centres unmarked) [Compound 254, 4-chloro-1-(3-cyanocyclobutyl)-N-(3-methyl-5-(phenylethynyl)pyridin-2-yl)-1H-pyrazole-5-carboxamide], the IC50 came to 420 nM.

`Cc1cc(C#Cc2ccccc2)cnc1NC(=O)c1c(Cl)cnn1C1CCN(C(=O)C(F)(F)F)CC1` [Compound 268, 4-chloro-N-[3-methyl-5-(2-phenylethynyl)-2-pyridyl]-2-[1-(2,2,2-trifluoroacetyl)-4-piperidyl]pyrazole-3-carboxamide] registered an IC50 of 450 nM.

Turning to `Cc1cc(C#Cc2ccc(F)cc2)cnc1NC(=O)c1c(Cl)cnn1CC1(F)CCN(C(=O)C(C)C)CC1` [Compound 339, 4-chloro-1-((4-fluoro-1-isobutyrylpiperidin-4-yl)methyl)-N-(5-((4-fluorophenyl)ethynyl)-3-methylpyridin-2-yl)-1H-pyrazole-5-carboxamide], the IC50 was found to be 730 nM.

`Cc1cc(C#Cc2ccc(F)cc2)cnc1NC(=O)c1c(Cl)cnn1[C@H]1C[C@H](NC(=O)C(C)C)C1` [Compound 209, 4-chloro-N-(5-((4-fluorophenyl)ethynyl)-3-methylpyridin-2-yl)-1-(trans-3-isobutyramidocyclobutyl)-1H-pyrazole-5-carboxamide] had an IC50 of 310 nM.

For `Cc1cc(C#Cc2ccc(F)cc2)cnc1NC(=O)c1c(Cl)cnn1CC1(F)CCN(C(=O)C2CC2C)CC1` (centres unmarked) [Compound 348, 4-chloro-1-((4-fluoro-1-(2-methylcyclopropane-1-carbonyl)piperidin-4-yl)methyl)-N-(5-((4-fluorophenyl)ethynyl)-3-methylpyridin-2-yl)-1H-pyrazole-5-carboxamide], the IC50 was determined as 780 nM.

`Cc1cc(C#Cc2ccccc2)cnc1NC(=O)c1c(Cl)cnn1[C@H]1CC[C@@H](NC(=O)OC(C)(C)C)CC1` [Compound 309, Tert-butyl (cis-4-(4-chloro-5-((3-methyl-5-(phenylethynyl)pyridin-2-yl)carbamoyl)-1H-pyrazol-1-yl)cyclohexyl)carbamate] showed an IC50 of 580 nM.

As to “4-chloro-1-[(2s,4r)-6-(cyclopropanecarbonyl)-6-azaspiro[3.4]octan-2-yl]-N-{5-[(4-fluorophenyl)ethynyl]-3-methylpyridin-2-yl}-1H-pyrazole-5-carboxamide or 4-chloro-1-[(2r,4s)-6-(cyclopropanecarbonyl)-6-azaspiro[3.4]octan-2-yl]-N-{5-[(4-fluorophenyl)ethynyl]-3-methylpyridin-2-yl}-1H-pyrazole-5-carboxamide [Compound 362]”, the midpoint of inhibition, the IC50, lay at 910 nM.

In the case of `Cc1cc(C#Cc2ccccc2)cnc1NC(=O)c1c(Cl)cnn1[C@H]1CCN(C(=O)OC(C)(C)C)C1` [Compound 298, tert-butyl (S)-3-(4-chloro-5-((3-methyl-5-(phenylethynyl)pyridin-2-yl)carbamoyl)-1H-pyrazol-1-yl)pyrrolidine-1-carboxylate], the IC50 came to 540 nM.

`Cc1cc(C#Cc2ccccc2)cnc1NC(=O)c1c(Cl)cnn1C[C@@H]1CCN(C(=O)OC(C)(C)C)C[C@H]1F` [Compound 241, tert-butyl (3S,4S)-4-((4-chloro-5-((3-methyl-5-(phenylethynyl)pyridin-2-yl)carbamoyl)-1H-pyrazol-1-yl)methyl)-3-fluoropiperidine-1-carboxylate] displayed a concentration for half-maximal inhibition (IC50) of 370 nM.

In the case of `N#CC1CC(n2ncc(Cl)c2C(=O)Nc2ncc(C#Cc3ccccc3)cc2F)C1` (centres unmarked) [Compound 266, 4-chloro-1-(3-cyanocyclobutyl)-N-(3-fluoro-3-(phenylethynyl)pyridin-2-yl)-1H-pyrazole-5-carboxamide], it took 440 nM to reach half-maximal inhibition (IC50).

The same test, now with this note: TREK-1 Thallium (Tl+) flux assay; values without footnote *12 are Method 1.
The compound `Cc1cc(C#Cc2ccc(F)cc2)cnc1NC(=O)c1c(Cl)cnn1C1CCN(C(=O)C2COCCO2)CC1` (centres unmarked) [Compound 65, 1-(1-(1,4-dioxane-2-carbonyl)piperidin-4-yl)-4-chloro-N-(5-((4-fluorophenyl)ethynyl)-3-methylpyridin-2-yl)-1H-pyrazole-5-carboxamide] yielded a half-maximal inhibitory concentration (IC50) of 150 nM.

Consider `CS(=O)(=O)N1CCC(n2ncc(Cl)c2C(=O)Nc2ncc(C#Cc3ccccc3)cc2F)CC1` [Compound 70, 4-chloro-N-(3-fluoro-5-(phenylethynyl)pyridin-2-yl)-1-(1-(methylsulfonyl)piperidin-4-yl)-1H-pyrazole-5-carboxamide], for which inhibition was half-maximal at 160 nM (IC50).

Turning to `O=C(Nc1ncc(C#Cc2ccccc2)cc1F)c1c(Cl)cnn1CC1CCOCC1` [Compound 68, 4-chloro-N-(3-fluoro-5-(phenylethynyl)pyridin-2-yl)-1-((tetrahydro-2H-pyran-4-yl)methyl)-1H-pyrazole-5-carboxamide], the IC50 was 160 nM.

`CC(=O)N1CC[C@@H](Cn2ncc(Cl)c2C(=O)Nc2ncc(C#Cc3ccccc3)cc2F)[C@@H](F)C1` [Compound 88, 1-(((3R,4S)-1-acetyl-3-fluoropiperidin-4-yl)methyl)-4-chloro-N-(3-fluoro-5-(phenylethynyl)pyridin-2-yl)-1H-pyrazole-5-carboxamide] returned an IC50 of 170 nM.

The test is the same for the next values; noted with them: read-out: Tl^+ Assay % inhibition at 30 uM (Minus value indicates activation of TREK-1); at 30 uM; CHO-K1 cells stably expressing human TREK-1; minus = activation.
On to `O=C(Nc1ncc(C#Cc2cccs2)cc1F)c1nn(CCC2CCN(C(=O)C3COCCO3)CC2)cc1Cl` (centres unmarked) [Compound 448, 1-(2-(1-(1,4-dioxane-2-carbonyl)piperidin-4-yl)ethyl)-4-chloro-N-(3-fluoro-5-(thiophen-2-ylethynyl)pyridin-2-yl)-1H-pyrazole-3-carboxamide], for which the inhibition at 30 µM was -106%.

One may read the IC50 as the concentration needed to halve the response being measured. Read a low IC50 as inhibition by little substance. As a reminder, the inhibition is the drop in the measured response relative to a control, in per cent.
